Experimental findings from patent publication CN116919972A, “去氧胆酸在制备抗水生病毒感染的药物或添加剂中的应用” (priority 2023, dated 2023) are described below.

The subject of data set [1] is SVCV (鲤春病毒血症病毒). Nature of the data set: Inhibition of SVCV-G gene expression in EPC cells (RT-qPCR). The data set is classed as cell-based. The settings on record: 12 h pretreatment, 0.1 MOI SVCV, 28 °C, 24 h. On the technique in general: In qPCR the cycle at which signal appears reflects the starting amount.
The test system of data set [2] is SVCV-G protein (SVCV-G蛋白). In words: Inhibition of SVCV-G protein expression in EPC cells (western blot). The data set is classed as cell-based. The conditions noted are these: 1-50 μM, increasing concentration, 0.1 MOI SVCV, 28 °C, 24 h. (In western blotting, separated proteins are transferred to a membrane and probed.)
Data set [3] has as its system SVCV (鲤春病毒血症病毒). Nature of the data set: Inhibition of SVCV virus particle formation (plaque assay on EPC cell supernatant). It counts as cell-based. The conditions noted are these: 50 μM, EPC cells, 0.1 MOI SVCV, 28 °C, 24 h; control 10^6.11 PFU/mL.
Data set [4] relates to SVCV (鲤春病毒血症病毒). In words: Survival of SVCV-infected zebrafish fed deoxycholic acid. The settings on record: 0.2 mg/fish per feeding, 7 days before injection of 10^4 PFU SVCV, 14 d observation, 16 °C; control 23.33%. It counts as in vivo.
The test system of data set [5] is SVCV (鲤春病毒血症病毒). In words: Viral load in organs of SVCV-infected zebrafish (absolute quantification of SVCV-G). The conditions noted are these: 5 d after SVCV infection, DCA 0.2 mg/fish fed. It counts as in vivo.
Data set [6] concerns SVCV (鲤春病毒血症病毒). Nature of the data set: Histopathology (H&E) of organs of SVCV-infected zebrafish. The settings on record: zebrafish liver, intestine, kidney, 5 d after SVCV infection, versus SVCV infection group. The data set is classed as in vivo.
The test system of another data set is zebrafish (斑马鱼). In words: Toxicity to zebrafish by organ histology (H&E), uninfected. The data set is classed as in vivo. The conditions noted are these: DCA-fed (0.2 mg/fish), liver, intestine, kidney histology.
Data set [7] relates to IHNV (传染性造血器官坏死病病毒). Nature of the data set: Inhibition of IHNV in EPC cells (RT-qPCR of IHNV-G gene). The data set is classed as cell-based. The settings on record: 50 μM, 0.1 MOI IHNV, 16 °C, 24 h, P<0.0001 vs control.
The subject of data set [8] is IHNV (传染性造血器官坏死病病毒). Nature of the data set: Survival of IHNV-infected rainbow trout fed deoxycholic acid. The data set is classed as in vivo. The conditions noted are these: 0.2 mg/fish per feeding, 7 days before injection of 10^4 PFU IHNV, 14 d observation, 16 °C; control 30%.
Data set [9] deals with IHNV (传染性造血器官坏死病病毒). In words: Viral load in organs of IHNV-infected rainbow trout (IHNV-G quantification). It counts as in vivo. The conditions noted are these: 5 d after IHNV infection, DCA 0.2 mg/fish fed.
The subject of data set [10] is IHNV (传染性造血器官坏死病病毒). In words: Histopathology (H&E) of organs of IHNV-infected rainbow trout. The data set is classed as in vivo. The settings on record: rainbow trout liver, intestine, kidney, 5 d after IHNV infection, versus IHNV infection group.
Another data set concerns rainbow trout (虹鳟). Nature of the data set: Toxicity to rainbow trout by organ histology (H&E), uninfected. It counts as in vivo. The settings on record: DCA-fed (0.2 mg/fish), liver, intestine, kidney histology.

Molecules are shown by their SMILES.

`C[C@H](CCC(=O)O)[C@H]1CC[C@H]2[C@@H]3CC[C@@H]4C[C@H](O)CC[C@]4(C)[C@H]3C[C@H](O)[C@]12C` [去氧胆酸]: the inhibition at 1 µM in the data set with SVCV (鲤春病毒血症病毒) [1] (1 μM, P<0.01, read-out: decrease of SVCV-G gene expression relative to control) was determined as 30.2%. The inhibition at 5 µM with SVCV (鲤春病毒血症病毒) [1] (5 μM, P<0.001, read-out: decrease of SVCV-G gene expression relative to control) stood at 49.2%. For the same compound, in the data set with SVCV (鲤春病毒血症病毒) [1] (10 μM, P<0.001, read-out: decrease of SVCV-G gene expression relative to control), the inhibition at 10 µM came to 50.7%. Also, the inhibition at 20 µM with SVCV (鲤春病毒血症病毒) [1] (20 μM, P<0.0001, read-out: decrease of SVCV-G gene expression relative to control) came to 68%. The inhibition at 50 µM in the data set with SVCV (鲤春病毒血症病毒) [1] (50 μM, P<0.0001, read-out: decrease of SVCV-G gene expression relative to control) came to 92%. In addition, the “SVCV G protein expression compared with control” value in data set [2] is given as “依次降低”. In addition, the “SVCV detection in cell supernatant” value in the data set on SVCV (鲤春病毒血症病毒) [3] is “无法被检测到”. The “survival rate of SVCV-infected zebrafish” value in the data set with SVCV (鲤春病毒血症病毒) [4] amounted to 66.67%. In addition, the “viral load in intestine” value with SVCV (鲤春病毒血症病毒) [5] (intestine) and in the data set with IHNV (传染性造血器官坏死病病毒) [9] (intestine) was “显著降低” each time. Besides, the “viral load in kidney” value in the data set on SVCV (鲤春病毒血症病毒) [5] (kidney) and with IHNV (传染性造血器官坏死病病毒) [9] (kidney) was “显著降低” each time. In addition, the “viral load in liver” value in the data set on SVCV (鲤春病毒血症病毒) [5] (liver) is reported as “显著降低”. The “pathological damage caused by virus infection in organs” value in the data set with SVCV (鲤春病毒血症病毒) [6] and with IHNV (传染性造血器官坏死病病毒) [10] was “明显减轻” in each case. The toxicity to zebrafish entry in the data set on zebrafish (斑马鱼) is listed as “没有毒性”. Besides, in the data set on IHNV (传染性造血器官坏死病病毒) [7], the IHNV viral load entry is “显著降低”. In addition, the “survival rate of IHNV-infected rainbow trout” value with IHNV (传染性造血器官坏死病病毒) [8] came out at 60%. Also, the “toxicity to rainbow trout” value in the data set on rainbow trout (虹鳟) is reported as “没有毒性”.
